# Experimental data from patent publication EP4692072A1, “PHOTOCHROMIC COMPOUND, PROPARGYL ALCOHOL COMPOUND, CURABLE COMPOSITION, OPTICAL ARTICLE, LENS, AND SPECTACLES” (TOKUYAMA CORPORATION, priority 2023, dated 2024).
# What was measured:
# [1] = Photochromic properties of photochromic cured product prepared by kneading method; assay type: physicochemical; settings: 0.106 mmol per 100 g monomer; for A23: 1 mm cured product, 23°C color optical density ε(300)-ε(0); for Maximum absorption wavelength: 1 mm thiourethane cured product, after color development
# Experimental: (§1) • [1] Maximum Absorption Wavelength (λmax): The maximum absorption wavelength after color development, measured using a spectrophotometer (instantaneous multichannel photodetector MCPD3000) manufactured by Otsuka Electronics Co., Ltd. was used as an indicator for the color tone during the color development. • [2] 23°C Color Optical Density (A23): A difference between an absorbancy measured after light irradiation at 23°C for 300 seconds {ε(300)} and an absorbancy without light irradiation ε(0) at the maximum absorption wavelength was used as an indicator for the color optical density. […] 23°C color fading half-life [τ1/2 (sec.)]: A time required for the absorbancy of the sample at the maximum absorption wavelength to decrease to 1/2 of {ε(300)-ε(0)} when the light irradiation was terminated after the light irradiation at 23°C for 300 seconds, was used as an indicator for the color fading speed. The shorter this time, the higher the color fading speed. • [4] Residual rate (A120/A0×100): The obtained photochromic plastic lens was subjected to accelerated deterioration using a xenon weather meter X25 manufactured by Suga Test Instruments Co., Ltd. for 120 hours. Subsequently, the color optical density was evaluated before and after the test, then a color optical density before the test (A0) and a color optical density after the test (A120) were measured, and a ratio (A120/A0) was defined as a residual rate. The residual rate was used as an indicator for a color developing durability. The higher the residual rate, the higher the color developing durability. The results of Examples 26, 50, and Comparative Examples 1 to 8 are summarized in Table 1, and the results of Examples 27 to 49 are summarized in Tables 2 and 3.
# First, the photochromic compound obtained in Example 1, additives, and a polymerizable compound were mixed to obtain a curable composition.
# As the polymerizable compound, a combination of the following polymerizable monomers was used. • 1,3-bis(isocyanatomethyl)cyclohexane: 36.7 parts by mass Pentaerythritol tetrakis(3-mercaptopropionate): 39.4 parts by mass • Polyoxyethylene polyoxypropylene lauryl ether (Wonder Surf 140 manufactured by Aoki Oil Industrial Co., Ltd.): 17.4 parts by mass • 1-decanethiol: 2.8 parts by mass • RX-1 adjusted according to the method described in Patent Document 13: 3.8 parts by mass
# Note that the photochromic compound was added to the curable composition so that the amount of the photochromic compound was 0.106 mmol based on 100 g of the total amount of the polymerizable monomer. The following additives were used: Dimethyltin dichloride • : 0.05 part by mass • Irganox 245: 0.1 part by mass • 2-ethylhexyl 4-methoxycinnamate: 0.6 part by mass
# The prepared curable composition was thoroughly defoamed, then injected into a glass mold having a 1 mm gap, and polymerized by cast polymerization. The polymerization was carried out in an air furnace while gradually raising the temperature from 27°C to 120°C over 18 hours. After the polymerization, the cured product was removed from the glass mold to obtain a photochromic cured product having a thickness of 1 mm. The obtained photochromic cured product was evaluated in the same manner as in Example 26.
# (Examples 85 to 99, and Comparative Example 14 to 18) Photochromic cured products were prepared using photochromic compounds presented in Tables 6 and 7 in the same manner as in Example 84. The results of Examples 84 and 85 and Comparative Examples 14 to 18 are summarized in Table 6, and the results of Examples 86 to 99 are summarized in Table 7.
# [2] = Accelerated deterioration (xenon weather meter X25, 120 hours) of photochromic laminate prepared by coating method; assay type: physicochemical; settings: 0.25 mmol per 100 g monomers, A120/A0×100 after 120 hours xenon weather meter
# From the text: First, the photochromic compound obtained in Example 1, a photoinitiator, and a polymerizable compound were mixed to obtain a curable composition.
# Polyethylene glycol dimethacrylate (average molecular weight: 736): 42 parts by mass • Polyethylene glycol dimethacrylate (average molecular weight: 536): 12 parts by mass • Trimethylolpropane trimethacrylate: 38 parts by mass γ-methacryloyloxypropyl trimethoxysilane: 2 parts by mass Glycidyl methacrylate: 1 part by mass
# Note that the photochromic compound was added to the curable composition so that the amount of the photochromic compound was 0.25 mmol based on 100 g of the total amount of the radical-polymerizable monomers.
# Phenylbis(2,4,6-trimethylbenzoyl)phosphine oxide (photoinitiator: Omnirad 819): 0.3 parts by mass Ethylene bis(oxyethylene) bis[3-(5-tert-butyl-4-hydroxy-m-tolyl)propionate] (stabilizer, Irganox 245): 1 part by mass Bis(1,2,2,6,6-pentamethyl-4-piperidyl) sebacate: 3 parts by mass Leveling agent (L7001) manufactured by Dow Corning Toray Co.,Ltd.: 0.1 part by mass
# First, a thiourethane-based plastic lens having a central thickness of 2 mm and a refractive index of 1.60 was prepared as the optical substrate. Note that this thiourethane-based plastic lens was pre-treated by alkaline etching with a 10% sodium hydroxide aqueous solution at 50°C for 5 minutes, followed by sufficient washing with distilled water.
# A surface of the above-described plastic lens was coated with a moisture-curable primer (product name: TR-SC-P, manufactured by Tokuyama Corporation) at a rotation frequency of 70 rpm for 15 seconds, followed by 1000 rpm for 10 seconds, using a spin coater (1H-DX2, manufactured by MIKASA CO., LTD), Subsequently, about 2 g of the photochromic curable composition obtained above was spin-coated at a rotation frequency of 60 rpm for 40 seconds, followed by 600 rpm for 10 to 20 seconds, to form a photochromic coating layer with a film thickness of 40 µm.
# The lens with the surface coated with the photochromic curable composition (photochromic coating layer) was irradiated with light using a metal halide lamp with an output power of 200 mW/cm^2 in a nitrogen gas atmosphere for 90 seconds to cure the coating film. Subsequently, the lens was further heated at 110°C for 1 hour to prepare a photochromic laminate having a photochromic layer.
# as §1, with “The results of Examples 26, 50, and Comparative Examples 1 to 8 are summarized in Table 1, and the results of Examples 27 to 49 are summarized in Tables 2 and 3.” left out
A23 [1],Maximum absorption wavelength [1] [nm],Residual rate [2] [%],SMILES,further results
0.96 -,503,65,COc1ccc(C2(c3ccc(N(C)c4ccccc4)cc3)C=Cc3c4c(c5cc(-c6ccc(N7CCOCC7)cc6)c(OC)cc5c3O2)-c2ccccc2C4(C)C)cc1 (centres unmarked) [Example 1],A23 ([1]; listed as Formula (37)): 1.06 -; Maximum absorption wavelength ([1]; listed as Formula (37)): 610 nm
0.59 -,472,55,CCCC1(CCC)c2cc(OC)ccc2-c2c1c1c(c3cc(OC)ccc23)OC(c2ccc(OC)cc2)(c2ccc(N(C)c3ccccc3)cc2)C=C1 (centres unmarked) [Example 3],A23 ([1]; listed as Formula (46)): 1.16 -; Maximum absorption wavelength ([1]; listed as Formula (46)): 619 nm
0.56 -,511,68,CCCc1ccc(C2(c3ccc(N(C)c4ccccc4)cc3)C=Cc3c4c(c5cc(Sc6c(C)cccc6C)c(OC)cc5c3O2)-c2ccccc2C42CC(C)(C)CC(C)(C)C2)cc1 (centres unmarked) [Example 5],A23 ([1]; listed as Formula (51)): 0.69 -; Maximum absorption wavelength ([1]; listed as Formula (51)): 598 nm
0.75 -,499,61,CCCC1(CCC)c2ccccc2-c2c1c1c(c3cc(OC)c(-c4ccc(OC)cc4OC)cc23)OC(c2ccc(N(C)c3ccccc3)cc2)(c2ccc(OC)c(F)c2)C=C1 (centres unmarked) [Example 7],A23 ([1]; listed as Formula (55)): 0.99 -; Maximum absorption wavelength ([1]; listed as Formula (55)): 610 nm
0.51 -,476,60,COCCOCCC1(CCOCCOC)c2cc(C)ccc2-c2c1c1c(c3cc(C)ccc23)OC(c2ccc(N(C)c3ccc(F)cc3)cc2)(c2ccc(OC)c(OC)c2)C=C1 (centres unmarked) [Example 8],A23 ([1]; listed as Formula (57)): 1.24 -; Maximum absorption wavelength ([1]; listed as Formula (57)): 604 nm
1.41 -,519,60,CCCCN(c1ccccc1)c1ccc(C2(c3ccc(C)cc3)C=Cc3c4c(c5cc(N6CCOCC6)c(OC)cc5c3O2)-c2ccccc2C4(CC)CC)cc1 (centres unmarked) [Example 10],A23 ([1]; listed as Formula (62)): 1.09 -; Maximum absorption wavelength ([1]; listed as Formula (62)): 600 nm; Residual rate ([2]; listed as Formula (62)): 64%
,,60,COCCCCC1(CCCCOC)c2cc(Sc3c(C)cccc3C)ccc2-c2c1c1c(c3cc(OC)ccc23)OC(c2ccc(OC)cc2)(c2ccc(N(C)c3ccc(OC)cc3)cc2)C=C1 (centres unmarked) [Example 11],
0.59 -,496,63,COCCN(c1ccccc1)c1ccc(C2(c3ccc4c(c3)OCCO4)C=Cc3c4c(c5cc6c(cc5c3O2)SC(C)(C)O6)-c2ccccc2C42CCC3(CCCCC3)CC2)cc1 (centres unmarked) [Example 14],A23 ([1]; listed as Formula (71)): 0.65 -; Maximum absorption wavelength ([1]; listed as Formula (71)): 590 nm
0.47 -,475,57,CCC1(CC)CCC2(CC1)c1cc(OC(F)(F)F)ccc1-c1c2c2c(c3cc(OC)ccc13)OC(c1ccc(N(C)c3ccccc3)cc1)(c1ccc(OC)c(C)c1)C=C2 (centres unmarked) [Example 16],A23 ([1]; listed as Formula (77)): 0.86 -; Maximum absorption wavelength ([1]; listed as Formula (77)): 593 nm
,,60,COCCC1(CCOC)c2ccccc2-c2c1c1c(c3cc(OC)c(-c4ccc(N(c5ccccc5)c5ccccc5)cc4)cc23)OC(c2ccc(Oc3ccccc3)cc2)(c2ccc(N(C)c3ccccc3)cc2)C=C1 (centres unmarked) [Example 23],
,,58,CCCCOCCC1(CCOCCCC)c2ccccc2-c2c1c1c(c3cc(OC)c(NC(=O)c4ccccc4)cc23)OC(c2ccc(N(C)c3ccccc3)cc2)(c2ccc(OC)c(F)c2)C=C1 (centres unmarked) [Example 53],Residual rate ([2]; listed as Formula (95)): 60%

SMILES,A23 [1],Maximum absorption wavelength [1] [nm],Residual rate [2] [%],further results
COc1ccc(N(C)c2ccc(C3(c4ccc(CCO[Si](C)(C)CC[Si](O[Si](C)(C)C)(O[Si](C)(C)C)O[Si](C)(C)C)cc4)C=Cc4c5c(c6cc(N(C)c7ccccc7)c(OC)cc6c4O3)-c3ccc(C(F)(F)F)cc3C53CCC(C)(C)CC3)cc2)cc1 (centres unmarked) [Example 60],,,62,Residual rate ([2]; listed as Formula (121)): 64%
